Laboratory results taken from patent US4426447A, “Homocitric acid oligoriboside derivative for prevention of dental caries” (Zaidan Hojin Biseibutsu Kagaku Kenkyu Kai, priority 1980, dated 1984).
Where a name gives a salt, the structure may show the parent alone. Read-outs that look alike come from different tables or passages of the source.

Legend:
dextransucrase = assay: Inhibitory activity to dextransucrase (turbidity at 600 nm); assay type: biochemical, Streptococcus mutans ATCC 27607; conditions: qualitative statement; curve only in FIG. 4
Description: Dextransucrase was prepared as follows: Streptococcus mutans ATCC 27607 was inoculated to Brain Heart Infusion bouillon (Eiken Chemical Co.) and grown overnight at 37° C. The culture supernatant obtained by centrifugation was precipitated with ammonium sulfate at 50% saturation. The precipitated enzyme was desalted and purified by conventional procedures.

[1] = tested on: Streptococcus mutans ATCC 27607; assay: Inhibition of Streptococcus mutans adherence (adhered plaque turbidity); assay type: cell-based; conditions: for Turbidity (600 nm): 37° C., 14 hours; for inhibition at 50 µg/mL / inhibition at 100 µg/mL: Streptococcus mutans, ATCC27607, 14 h
Description: Heart Infusion bouillon (Difco) containing various concentrations of sucrose was autoclaved and added aseptically with various amounts of ribocitrin aqueous solution (filter-sterilized) or sterile water for control (final volume is 3.0 ml and final concentrations are shown in Table 1). Each tube was inoculated with 1×10^5 CFU of Streptococcus mutans ATCC 27607 grown overnight at 37° C. in Brain Heart Infusion bouillon (Difco) and incubated anaerobically in a candle jar at 37° C. for 14 hours. The tube was positioned at an angle 30° from the horizontal. Nonadherent cells were removed by pouring off the broth and the test tube was washed three times with 3 ml of 5 mM phosphate buffer (pH 6.0). The adhered plaque (insoluble dextran and cellular aggregates formed as a result of insoluble dextran production) was suspended in 3 ml of phosphate buffer described above by mechanical stirring and by scraping the surface with a glass rod. Turbidity of the suspension was measured at 600 nm.

[2] = Solubility (characterizing properties); assay type: physicochemical; conditions: sodium salt
Description: Ribocitrin in the form of its sodium salt has the following characterizing properties:
2. Soluble in water; insoluble in organic solvents.

Row | Structure (SMILES) | Inhibitory activity toward dextransucrase (in words) (dextransucrase) | Turbidity (600 nm) ([1]; 50 μg/ml ribocitrin sodium salt, 0.5% sucrose) | Turbidity (600 nm) ([1]; 50 μg/ml ribocitrin sodium salt, 1.0% sucrose) | Turbidity (600 nm) ([1]; 50 μg/ml ribocitrin sodium salt, 2.0% sucrose) | Turbidity (600 nm) ([1]; 100 μg/ml ribocitrin sodium salt, 0.5% sucrose) | Turbidity (600 nm) ([1]; 100 μg/ml ribocitrin sodium salt, 1.0% sucrose) | Turbidity (600 nm) ([1]; 100 μg/ml ribocitrin sodium salt, 2.0% sucrose) | inhibition at 50 µg/mL ([1]; read-out: Percent inhibition, 50 μg/ml ribocitrin sodium salt, 0.5% sucrose, 37° C.) [%] | inhibition at 50 µg/mL ([1]; read-out: Percent inhibition, 50 μg/ml ribocitrin sodium salt, 1.0% sucrose, 37° C.) [%] | inhibition at 50 µg/mL ([1]; read-out: Percent inhibition, 50 μg/ml ribocitrin sodium salt, 2.0% sucrose, 37° C.) [%] | inhibition at 100 µg/mL ([1]; read-out: Percent inhibition, 100 μg/ml ribocitrin sodium salt, 0.5% sucrose, 37° C.) [%] | inhibition at 100 µg/mL ([1]; read-out: Percent inhibition, 100 μg/ml ribocitrin sodium salt, 1.0% sucrose, 37° C.) [%] | inhibition at 100 µg/mL ([1]; read-out: Percent inhibition, 100 μg/ml ribocitrin sodium salt, 2.0% sucrose, 37° C.) [%] | Solubility in organic solvents ([2]; organic solvents) | Solubility in water ([2]; water)
1 | O=C(O)CC[C@@](CC(=O)O)(O[C@H]1O[C@H](CO)[C@@H](O[C@H]2O[C@H](CO)[C@@H](O)[C@H]2O[C@H]2O[C@H](CO)[C@@H](O)[C@H]2O)[C@H]1O)C(=O)O [ribocitrin, 2-(S)-[O-α-D-ribofuranosyl-(1→2)-O-α-D-ribofuranosyl-(1→3)-α-D-ribofuranosyloxy]-1,2,4-butanetricarboxylic acid] | effective inhibitors of dextransucrase |  |  |  |  |  |  |  |  |  |  |  |  |  | 
2 | O=C(O)CC[C@@](CC(=O)O)(O[C@H]1O[C@H](CO)[C@@H](O[C@H]2O[C@H](CO)[C@@H](O)[C@H]2O[C@H]2O[C@H](CO)[C@@H](O)[C@H]2O)[C@H]1O)C(=O)O [Ribocitrin (sodium salt)] |  | 0.510 | 0.340 | 0.333 | 0.249 | 0.173 | 0.132 | 17 | 43 | 33 | 60 | 71 | 73 | insoluble | Soluble
